Structures are written as SMILES.

For data set [1], the target named is T1, Microtubule-associated protein tau (Homo sapiens, UniProt P10636). The data set is described as follows: Inhibition of tau protein aggregation (unknown origin).
A short description of data set [2]: Inhibition of […] human tau K18 aggregation.
The species entered for data set [3] is Homo sapiens. The data set is described as follows: Induction of tau K19 (unknown origin) disaggregation assessed as disassembly-inducing half maxima.
Data set [4] is described as follows: Binding affinity to tau K19 (unknown origin) assessed as dissociation constant by STD-NMR analysis. Details: species or system Homo sapiens.
The nature of data set [5]: Inhibition of tau K19 aggregation (unknown origin). Details: species or system Homo sapiens.
The species entered for data set [6] is Homo sapiens. Briefly: Induction of tau K19 (unknown origin) disaggregation assessed as decrease in paired helical filament formation measured disassembly-inducing half maxima by thioflavin S fluorescence assay.
The subject of data set [7] is N2a. Briefly: Cytotoxicity against mouse N2A cells at 10 uM after 24 hrs by LDH assay relative to control. It is filed as cell-based.
A short description of data set [8]: Inhibition of tau K19 protein (unknown origin) aggregation by thioflavin S fluorescence assay. Details: species or system Homo sapiens.
For data set [9], the target named is T1, Microtubule-associated protein tau. The data set is described as follows: Induction of tau protein (unknown origin) disaggregation assessed as disassembly-inducing half maxima.
Data set [10] is described as follows: Inhibition of tau K19 (unknown origin) aggregation assessed as inhibition of paired helical filament formation after 10 days by thioflavin S fluorescence assay in presence of heparin. Details: species or system Homo sapiens.
The species named for data set [11] is Homo sapiens. Briefly: Induction of tau K19 (unknown origin) disaggregation assessed as decrease in paired helical filament formation measured disassembly-inducing half maxima after 10 days by thioflavin S fluorescence assay in presence of heparin.
In data set [12] the target is T1, Microtubule-associated protein tau. The data set is described as follows: Inhibition of human recombinant brain tau protein (412 amino acid residues) filament assembly expressed in Escherichia coli BL21(DE3) by electron microscopic analysis in presence of heparin.
Data set [13] in a line: Tmax in amyotrophic lateral sclerosis patient. Particulars: human, in vivo.
Data set [14] is described as follows: Inhibition of tau K18 aggregation in mouse N2A cells. It is filed as cell-based.
Data set [15] deals with N2a. The data set is described as follows: Inhibition of tau K18 deltaK280 mutant aggregation in mouse N2A cells at 10 uM measured over 5 days by thioflavin S fluorescence assay relative to control. It is filed as cell-based.
Data set [16] concerns the target T1, Microtubule-associated protein tau. Briefly: Inhibition of tau protein aggregation (unknown origin) at 5:1 compound to protein concentration by Western blot analysis. On the technique in general: Immunoblotting shows a protein as a band on a membrane.
The nature of data set [17]: Inhibition of K18 P301L mutant (unknown origin) fibril formation after 1 hr by thioflavin T fluorescence assay. Details: species or system Homo sapiens.
The species entered for data set [18] is Homo sapiens. The data set is described as follows: Selectivity ratio of IC50 for full length human tau40 aggregation to IC50 for tau K19 aggregation (unknown origin).
A short description of data set [19]: Inhibition of full length human tau40 aggregation.
Data set [20] in a line: Terminal half life in rat at 100 mg, iv. The data set is classed as ADME, organism-based. Conditions: in vivo, read-out: beta t1/2 (converted).
In data set [21] the target is Amyloid-beta precursor protein (Homo sapiens, UniProt P05067). Briefly: Inhibition of amyloid beta (1 to 40) (unknown origin) fibril formation after 18 hrs by DELFIA.
Chain of Amyloid-beta precursor protein (P05067 whole entry): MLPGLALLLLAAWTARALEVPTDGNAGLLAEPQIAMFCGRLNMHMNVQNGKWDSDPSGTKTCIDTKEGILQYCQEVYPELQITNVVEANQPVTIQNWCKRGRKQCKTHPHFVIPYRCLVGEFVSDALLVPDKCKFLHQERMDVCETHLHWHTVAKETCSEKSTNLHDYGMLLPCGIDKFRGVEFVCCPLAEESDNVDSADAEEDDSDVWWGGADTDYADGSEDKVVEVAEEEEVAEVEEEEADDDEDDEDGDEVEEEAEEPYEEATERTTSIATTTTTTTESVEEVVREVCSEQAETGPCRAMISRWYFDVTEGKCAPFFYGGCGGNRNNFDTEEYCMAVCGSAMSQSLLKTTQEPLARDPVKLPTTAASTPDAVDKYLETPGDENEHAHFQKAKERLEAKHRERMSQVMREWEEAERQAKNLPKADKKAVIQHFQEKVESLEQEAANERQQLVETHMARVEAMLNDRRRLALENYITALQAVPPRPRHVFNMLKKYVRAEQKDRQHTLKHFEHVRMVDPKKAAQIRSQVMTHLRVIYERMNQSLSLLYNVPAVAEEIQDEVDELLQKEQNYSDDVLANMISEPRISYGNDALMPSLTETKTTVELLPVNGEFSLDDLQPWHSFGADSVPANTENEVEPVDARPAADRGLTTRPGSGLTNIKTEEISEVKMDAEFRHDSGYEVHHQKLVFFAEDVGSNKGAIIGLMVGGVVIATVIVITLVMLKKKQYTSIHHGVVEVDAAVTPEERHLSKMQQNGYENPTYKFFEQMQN
Data set [22] in a line: Oral bioavailability in diabetic neuropathy patient at 150 mg/day. Particulars: human, in vivo. It is filed as ADME, organism-based.

T1 sequence (P10636 whole entry): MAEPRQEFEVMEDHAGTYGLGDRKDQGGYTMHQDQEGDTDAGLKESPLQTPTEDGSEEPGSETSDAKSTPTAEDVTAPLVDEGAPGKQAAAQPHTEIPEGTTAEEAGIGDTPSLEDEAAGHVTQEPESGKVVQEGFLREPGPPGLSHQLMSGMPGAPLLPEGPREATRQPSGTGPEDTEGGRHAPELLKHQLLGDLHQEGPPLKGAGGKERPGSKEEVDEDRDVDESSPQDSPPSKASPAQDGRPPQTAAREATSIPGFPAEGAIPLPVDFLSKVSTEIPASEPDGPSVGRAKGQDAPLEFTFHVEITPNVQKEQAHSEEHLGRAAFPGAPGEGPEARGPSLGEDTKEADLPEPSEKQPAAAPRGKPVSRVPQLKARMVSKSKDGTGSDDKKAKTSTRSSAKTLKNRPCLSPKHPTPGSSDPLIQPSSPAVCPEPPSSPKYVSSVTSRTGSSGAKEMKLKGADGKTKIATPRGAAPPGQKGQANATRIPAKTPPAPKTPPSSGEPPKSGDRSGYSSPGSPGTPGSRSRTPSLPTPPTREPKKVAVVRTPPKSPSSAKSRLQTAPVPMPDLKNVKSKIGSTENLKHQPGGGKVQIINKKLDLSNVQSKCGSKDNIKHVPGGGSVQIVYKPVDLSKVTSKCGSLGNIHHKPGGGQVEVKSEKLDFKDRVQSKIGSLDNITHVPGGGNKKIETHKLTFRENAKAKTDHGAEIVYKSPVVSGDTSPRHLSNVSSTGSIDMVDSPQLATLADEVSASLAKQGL

In general, IC50 refers to the midpoint of a concentration-inhibition curve. Take `CCC(/C=C1\Sc2ccc(OC)cc2N1CCO)=C\c1sc2ccc(OC)cc2[n+]1CCO`: the IC50 in data set [1] stood at 380 nM; in [2], 300 nM. By Kd is commonly meant the concentration at which binding is half-saturated. With `O=C(NNc1nc(-c2ccc([N+](=O)[O-])cc2)cs1)c1ccc2[nH]cnc2c1`, the Activity in the data set listed under Homo sapiens [3] was found to be 0.7 µM. For the same molecule, the Kd in [4] was 62000 nM. Further, the half-inhibitory concentration (IC50) in data set [5] came out at 1600 nM. With `O=C1/C(=C/c2ccc(-c3cccc(Cl)c3)o2)SC(=S)N1Cc1nc2ccccc2[nH]1`, the Activity was determined as 0.94 µM in the data set filed under Homo sapiens [6] and 2% with N2a [7]. In [8], this molecule showed a concentration for half-maximal inhibition (IC50) of 670 nM. Consider `Cc1ccc(C(=O)N/N=C/c2ccc(O)c(O)c2O)cc1`, for which half-maximal inhibition in data set [1] (IC50) required 970 nM. Moreover, the Activity in data set [9] was 1.1 µM. In data set [1], `C1=C2\Sc3ccccc3N2CCCCC[n+]2c(sc3ccccc32)/C=C/C=C2\Sc3ccccc3N2CCCCC[n+]2c(sc3ccccc32)/C=C/1` returned an IC50 of 80 nM. On to `O=C(c1ccccc1)c1ccc(O)c(O)c1O`, for which, in data set [10], the IC50 came out at 1100 nM. Also, the Activity in the data set listed under Homo sapiens [11] was determined as 2.2 µM. In the case of `Cc1cc(O)c2c(c1)C(=O)c1cc(O)cc(O)c1C2=O` [EMODIN], the half-maximal inhibitory concentration (IC50) in data set [10] came to 1100 nM. The Activity in the data set filed under Homo sapiens [11] is 2.2 µM. As to `Oc1cc(O)c2c(c1)O[C@H](c1ccc(O)c(O)c1)[C@H](O)C2` [(-)-EPICATECHIN], the 50% inhibitory concentration (IC50) in data set [12] is ≥ 200000 nM. As for `COc1cccc2c1C(=O)c1c(O)c3c(c(O)c1C2=O)C[C@@](O)(C(=O)CO)C[C@@H]3O[C@H]1C[C@H](N)[C@H](O)[C@H](C)O1`, in the data set filed under Homo sapiens [11], the Activity was found to be 2.2 µM.

As usually defined, the Tmax is the time at which the peak concentration occurs. `Nc1nc2ccc(OC(F)(F)F)cc2s1` [RILUZOLE]: the time to peak (Tmax) in data set [13] worked out at 2 h. Regarding `O=C1c2ccc(O)c(O)c2C(=O)c2c(O)ccc(O)c21` [QUINALIZARIN], the IC50 in [10] was determined as 1100 nM. For the same molecule, the Activity in the data set filed under Homo sapiens [11] was 2.2 µM. As usually defined, the inhibition is the share of the control response that was lost under treatment. A lower inhibition goes with a weak effect. Take `Cc1nc(Nc2ccccc2C(=O)O)nc(Nc2ccccc2C(=O)O)c1[N+](=O)[O-]`: the 50% inhibitory concentration (IC50) in data set [14] is < 10000 nM. The molecule further registered an inhibition in the data set on N2a [15] of 70%. `Nc1ccc2nc3ccc(N)cc3[s+]c2c1` yielded an IC50 in [16] of 69 nM. The same measure, in the same setting: next, `Cc1cc2nc3ccc(N(C)C)cc3[s+]c2cc1N` [TOLONIUM CHLORIDE]: 69 nM. Take `O=C(O)CCN1C(=O)/C(=C/c2ccc(-c3cccc(Cl)c3)o2)SC1=S`: the Activity in the data set filed under Homo sapiens [6] is 0.3 µM. This molecule came in with an IC50 in data set [8] of 470 nM. `CCOC(=O)c1nn(-c2ccccc2)c(=O)c2c(N)scc12` displayed an IC50 in data set [17] of 6300 nM. Take `O=C(O[C@@H]1Cc2c(O)cc(O)cc2O[C@@H]1c1cc(O)c(O)c(O)c1)c1cc(O)c(O)c(O)c1` [EPIGALOCATECHIN GALLATE]: the figures for the 50% inhibitory concentration (IC50) in data set [12], in [19] and in [5] were 1800 nM, > 200000 nM and 3900 nM, respectively. For the same molecule, the Ratio IC50 in the data set filed under Homo sapiens [18] is > 50. `CCOC(=O)c1nn(-c2ccc(OC)cc2)c(=O)c2c(N)scc12`: inhibition in [17] was half-maximal at 5100 nM (IC50). Take `COc1cccc2c1C(=O)c1c(O)c3c(c(O)c1C2=O)C[C@@](O)(C(C)=O)C[C@@H]3O[C@H]1C[C@H](N)[C@H](O)[C@H](C)O1` [DAUNORUBICIN]: in data set [10], the 50% inhibitory concentration (IC50) was determined as 1100 nM. Further, the Activity in the data set filed under Homo sapiens [11] was determined as 2.2 µM. `O=C(O)COc1ccc(Nc2c([N+](=O)[O-])cc([N+](=O)[O-])c3cccnc23)cc1`: the 50% inhibitory concentration (IC50) in [14] was < 15000 nM. As for `CN(C)c1ccc2nc3ccc(N(C)C)cc3[s+]c2c1.[Cl-]` [METHYLENE BLUE ANHYDROUS], in [20], the half-life is 5 h.

In turn, `COc1ccccc1OCCNCC(O)COc1cccc2[nH]c3ccccc3c12` (configuration not stated) [CARVEDILOL] came in with an IC50 in [21] of 30000 nM. Regarding `CN(C)c1ccc2nc3ccc(N)cc3[s+]c2c1`, the half-inhibitory concentration (IC50) in data set [16] amounted to 69 nM; in [12], 2600 nM.

The bioavailability is dose-corrected exposure relative to a reference, in per cent. A low value points to little systemic uptake. On to `CC(/C=C1\SC(=S)N(CC(=O)O)C1=O)=C\c1ccccc1`, for which, in [22], the bioavailability amounted to 100%. For the molecule `O=C(O)CCN1C(=O)/C(=C/c2ccc(-c3cccc(Cl)c3)s2)SC1=S`, the Activity in the data set listed under Homo sapiens [6] came to 0.77 µM. The half-inhibitory concentration (IC50) in data set [8] worked out at 970 nM.

For the origin of these results see ChEMBL document CHEMBL2385058, “Progress and developments in tau aggregation inhibitors for Alzheimer disease” (J Med Chem, 2013).
